{
  "source": "paper PMC11802874",
  "about": "“The hypolipidemic effect of MI-883, the combined CAR agonist/ PXR antagonist, in diet-induced hypercholesterolemia model” (Nature Communications, 2025)",
  "key": {"human CAR variant 3": {"target": "T1, human CAR variant 3 (Homo sapiens, UniProt Q14994, DEL233-236)", "T1 construct": "host or cells: HepG2", "T1 sequence (Q14994 with tags, fused parts or gaps isoform Q14994-8 DEL233-236)": "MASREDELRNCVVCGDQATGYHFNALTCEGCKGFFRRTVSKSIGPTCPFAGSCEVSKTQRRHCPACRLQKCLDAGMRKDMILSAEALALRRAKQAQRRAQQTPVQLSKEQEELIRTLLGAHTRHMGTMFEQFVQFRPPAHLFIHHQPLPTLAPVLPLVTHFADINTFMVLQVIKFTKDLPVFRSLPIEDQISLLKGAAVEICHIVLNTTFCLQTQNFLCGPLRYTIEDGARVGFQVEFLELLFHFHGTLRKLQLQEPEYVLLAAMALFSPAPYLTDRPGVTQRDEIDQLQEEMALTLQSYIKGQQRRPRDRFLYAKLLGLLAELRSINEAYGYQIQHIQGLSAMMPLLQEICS", "T1 sequence (P19793 1-462 partner)": "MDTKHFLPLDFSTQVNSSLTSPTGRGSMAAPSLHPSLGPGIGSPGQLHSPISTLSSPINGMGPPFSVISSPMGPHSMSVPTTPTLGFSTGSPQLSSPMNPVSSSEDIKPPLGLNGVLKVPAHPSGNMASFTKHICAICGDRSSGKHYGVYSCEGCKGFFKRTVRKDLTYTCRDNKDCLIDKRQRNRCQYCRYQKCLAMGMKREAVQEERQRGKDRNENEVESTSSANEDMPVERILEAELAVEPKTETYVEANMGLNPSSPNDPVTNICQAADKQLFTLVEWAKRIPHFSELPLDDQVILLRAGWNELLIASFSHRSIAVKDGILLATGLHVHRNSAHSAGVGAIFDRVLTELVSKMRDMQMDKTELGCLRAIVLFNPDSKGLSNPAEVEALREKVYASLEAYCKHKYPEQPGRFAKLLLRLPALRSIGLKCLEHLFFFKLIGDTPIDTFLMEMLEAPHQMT", "assay": "CAR3 luciferase reporter assay (CYP2B6-luc) in HepG2 cells", "type": "cell-based", "protocol": "CAR3 luciferase reporter assay (with CYP2B6-luc) was performed in human hepatocellular carcinoma HepG2 cells as we described[19] For the CAR3 assay (Fig. 1d), a CYP2B6-luc reporter plasmid (originally entitled B-1.6k/PB/XREM) was kindly donated by Dr. Hongbing Wang (University of Maryland School of Pharmacy, Baltimore, MD, USA). All expression vectors are described in Supplementary, Chapter 4).\nCells were treated for 24 h with MI-883 in a range of concentration from 0.1 nM to 30 µM (n = 3). The half maximal effective concentration (EC50) to activate CAR or inhibit PXR (IC50) in the assays was calculated from at least eight points of the dose-response curves using the GraphPad Prism software."}, "CAR-LBD": {"target": "T2, CAR-LBD (Homo sapiens, UniProt Q14994)", "T2 construct": "HIS-tagged CAR-LBD (ThermoFisher Sciences, Cat. No PV4836); purchased ThermoFisher PV4836", "T2 sequence (Q14994 109-348 isoform Q14994-2 limits assumed)": "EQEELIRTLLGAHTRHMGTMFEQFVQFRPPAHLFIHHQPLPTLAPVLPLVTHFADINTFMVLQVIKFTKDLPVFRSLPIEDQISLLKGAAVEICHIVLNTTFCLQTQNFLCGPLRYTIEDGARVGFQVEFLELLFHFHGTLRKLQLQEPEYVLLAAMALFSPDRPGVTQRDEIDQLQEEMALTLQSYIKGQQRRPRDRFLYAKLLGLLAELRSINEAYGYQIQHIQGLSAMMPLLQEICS", "assay": "MARCoNI CAR-LBD coregulator interaction array", "type": "biochemical", "details": "100 μM", "protocol": "The reaction was performed in a fully automated microarray processing and fluorescent imaging platform (PamStation12) at 20 °C for 80 cycles (two cycles per minute). After removal of the unbound CAR-LBD receptor by washing each array with 25 µl Tris-buffered Saline (TBS) buffer, fluorescent images of the PamChip microarrays were obtained using the PamStation12, and then were analyzed for quantification of CAR binding using BioNavigator software (PamGene International B.V.). For data and statistical analysis, BioNavigator was used.\nModulation index (MI) is the log10-transformed relative binding value, which is calculated by the compound’s binding value, relative to the vehicle control (DMSO) binding value."}, "[1]": {"assay": "Stability in human plasma", "type": "in vitro ADME", "details": "plasma (legend: pooled human serum), read-out: Stability in human plasma, t1/2", "protocol": "Plasma protein binding, and stability in human and mouse plasma have been tested as previously described. Supplementary Figure 1. […] Four time points over 120 minutes have been analyzed. […] Compounds were tested in triplicate with or without NADPH."}, "[2]": {"target": "aryl hydrocarbon receptor (AhR) (Homo sapiens, UniProt P35869)", "sequence (P35869 11-848)": "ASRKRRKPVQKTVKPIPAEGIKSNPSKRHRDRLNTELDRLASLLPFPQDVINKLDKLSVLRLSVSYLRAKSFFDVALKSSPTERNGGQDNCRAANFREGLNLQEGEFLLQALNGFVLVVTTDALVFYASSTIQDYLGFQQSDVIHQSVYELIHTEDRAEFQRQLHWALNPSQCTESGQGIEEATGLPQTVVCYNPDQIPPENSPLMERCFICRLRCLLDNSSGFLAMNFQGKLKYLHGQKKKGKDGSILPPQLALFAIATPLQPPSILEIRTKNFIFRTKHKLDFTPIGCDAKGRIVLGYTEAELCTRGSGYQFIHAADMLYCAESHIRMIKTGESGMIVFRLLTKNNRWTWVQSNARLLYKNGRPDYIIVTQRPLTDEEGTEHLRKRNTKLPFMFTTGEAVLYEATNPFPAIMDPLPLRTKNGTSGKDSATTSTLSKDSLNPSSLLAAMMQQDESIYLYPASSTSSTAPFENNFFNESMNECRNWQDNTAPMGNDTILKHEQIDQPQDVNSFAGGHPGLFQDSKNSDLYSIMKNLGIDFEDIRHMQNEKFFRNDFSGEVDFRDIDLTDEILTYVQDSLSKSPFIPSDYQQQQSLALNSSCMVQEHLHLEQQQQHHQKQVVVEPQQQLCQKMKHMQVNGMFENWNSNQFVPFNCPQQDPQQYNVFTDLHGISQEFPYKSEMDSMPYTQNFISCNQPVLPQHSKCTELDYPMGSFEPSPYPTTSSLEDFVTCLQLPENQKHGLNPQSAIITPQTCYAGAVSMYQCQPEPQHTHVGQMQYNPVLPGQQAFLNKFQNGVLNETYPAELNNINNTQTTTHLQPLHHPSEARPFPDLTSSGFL", "assay": "Luciferase reporter gene assay AhR (p1A1-luc), HepG2", "text": "The luciferase reporter gene assays for FXR, LXRα, LXRβ, THα, GRα, PPARα, PPARδ/β, PPARγ, AhR, VD, ERα, ERβ and mouse Car are described in our recent paper[19]\nGal4-LBD constructs of tested nuclear receptors have been used together with pGL4.31[luc2P/GAL4UAS/Hygro] luciferase reporter construct and pRL-TK Renilla expression vector (both from Promega, Hercules, USA) in HepG2 cells transfected with Lipofectamine 2000 or 3000 reagents. For GRα and FXR receptors, full-length expression vectors have been used with pGRE-luc or pFXRE-luc luciferase constructs. For the aryl hydrocarbon receptor (AhR), p1A1-luc construct was used with only pRL-TK vector for transfection normalization. A dual reporter assay (Promega, Hercules, USA) was used to analyze both firefly and Renilla luciferase activities.\nGal4-LBD constructs of tested nuclear receptors have been used together with pGL5-luc luciferase reporter construct and pRL-TK Renilla expression vector in HepG2 cells transfected with Lipofectamine 2000 or 3000 reagents. For GRα and FXR receptors, full-length expression vectors have been used with pGRE-luc or pFXRE-luc luciferase constructs. For the aryl hydrocarbon receptor (AhR), p1A1-luc construct was used with only pRL-TK vector for transfection normalization. […] Bars represent means±S.D. (n=3)."}, "human PXR": {"target": "T3, human PXR (Homo sapiens, UniProt O75469)", "T3 sequence (O75469 1-434)": "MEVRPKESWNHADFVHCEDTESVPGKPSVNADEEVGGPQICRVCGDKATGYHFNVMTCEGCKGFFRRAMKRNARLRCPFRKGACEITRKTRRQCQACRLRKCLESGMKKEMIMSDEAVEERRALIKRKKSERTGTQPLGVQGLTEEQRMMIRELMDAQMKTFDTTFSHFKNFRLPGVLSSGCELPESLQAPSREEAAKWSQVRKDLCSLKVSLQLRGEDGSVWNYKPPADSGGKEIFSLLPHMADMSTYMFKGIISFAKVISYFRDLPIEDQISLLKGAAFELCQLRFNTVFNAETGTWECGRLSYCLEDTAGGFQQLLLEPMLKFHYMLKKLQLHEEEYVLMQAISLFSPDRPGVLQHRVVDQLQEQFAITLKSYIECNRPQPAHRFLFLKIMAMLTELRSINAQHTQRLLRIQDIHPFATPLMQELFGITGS", "assay": "PXR-dependent CYP3A4 reporter gene assay in H-P cells", "type": "cell-based", "set-up": "expressed in transfected cells; host or cells: H-P cells (HepG2 stably transfected with pcDhPXR)", "protocol": "Luciferase reporter gene assays in PXR expressing H-P cells and mammalian two-hybrid reporter assays have been performed as described before[55],[57].\nWe also analyzed PXR-dependent CYP3A4 reporter gene assays in H-P cells, which represent HepG2 cells stably over-expressing human PXR, due to transfection of PXR expression plasmid pcDhPXR^5. […] 0.01 µg Metridia luciferase expression plasmid pMetLuc2control per well was included."}},
  "note": "Where “and” joins values, the source holds several entries; their conditions need not be identical. Equal entries are not always repeated.",
  "data": [
    {"smiles": "NC(=O)c1cc(Cn2cc(-c3c(-c4ccc(Cl)cc4)nc4cc(F)ccn34)nn2)ccc1Cl", "note": "[MI-883, 2-chloro-5-((4-(2-(4-chlorophenyl)-7-fluoroimidazo[1,2-a]pyridin-3-yl)-1H-1,2,3-triazol-1-yl)methyl)benzamide]", "values": [
      {"measurement": "CAR3 variant activation (Fig. 1d), replicates", "setting": "human CAR variant 3; concentration 0.01 (unit not given), HepG2, 24 h", "value": 1},
      {"measurement": "CAR3 variant activation (Fig. 1d), replicates", "setting": "human CAR variant 3; concentration 0.1 (unit not given)", "value": "1.35 and 1.4 and 2.3"},
      {"measurement": "CAR3 variant activation (Fig. 1d), replicates", "setting": "human CAR variant 3; concentration 1 (unit not given)", "value": "4.55 and 1.6 and 1.1"},
      {"measurement": "CAR3 variant activation (Fig. 1d), replicates", "setting": "human CAR variant 3; concentration 10 (unit not given)", "value": "4.3 and 13.5 and 6.2"},
      {"measurement": "CAR3 variant activation (Fig. 1d), replicates", "setting": "human CAR variant 3; concentration 30 (unit not given)", "value": "10.05 and 10.1 and 9.78"},
      {"measurement": "CAR-coregulator interaction profile", "setting": "CAR-LBD", "value": "attracts several coactivators, including NCOA1, NCOA2, and NCOA3 proteins"},
      {"measurement": "half-life at 1 µM", "setting": "[1]", "value": "> 2", "unit": "h"},
      {"measurement": "NRs assays: AhR (relative to ctrl, replicates)", "setting": "[2]", "value": "0.69 and 0.85 and 0.64"},
      {"measurement": "PXR-dependent CYP3A4 reporter activity in H-P cells, replicates", "setting": "human PXR; 5 MI883 (µM not given), DMSO ~1", "value": "0.825 and 0.683 and 0.491"},
      {"measurement": "PXR-dependent CYP3A4 reporter activity in H-P cells, replicates", "setting": "human PXR; 30 MI883", "value": "0.49 and 0.788 and 0.597"},
      {"measurement": "PXR-dependent CYP3A4 reporter activity in H-P cells, replicates", "setting": "human PXR; RIF + 5 MI883", "value": "10.8 and 10.1 and 9.53"},
      {"measurement": "PXR-dependent CYP3A4 reporter activity in H-P cells, replicates", "setting": "human PXR; RIF + 10 MI883", "value": "5.74 and 6.79 and 5.06"},
      {"measurement": "PXR-dependent CYP3A4 reporter activity in H-P cells, replicates", "setting": "human PXR; RIF + 30 MI883", "value": "1.18 and 2.43 and 2.32"},
      {"measurement": "PXR-dependent CYP3A4 reporter activity in H-P cells, replicates", "setting": "human PXR; single agent: RIF (10 µM), 10 MI883", "value": "0.606 and 0.813 and 0.535"}
    ]}
  ]
}
